# Source: patent US7332623B2 (Kaohsiung Medical University, priority 2003, dated 2008)
# Entries after “also recorded” stand apart in the source; their conditions may differ. Where two headings read alike, the source gives them in different places. Marks after values point to notes of the source that are not given here.
# What was measured:
# KB cell = settings: Table 1; cited from earlier work
# CNS cancer cell SF-268 = experiment: Preliminary cytotoxicity test; assay type: cell-based, human
# [1] = tested on: Non-small cell Lung cancer cell NCI-H460; experiment: Preliminary cytotoxicity test; assay type: cell-based, human
# Breast cancer cell MCF-7 = experiment: Preliminary cytotoxicity test; assay type: cell-based, human
# CNS Cancer cell lines = experiment: NCI panel, average of cell lines; settings: Homo sapiens, read-out: cytotoxicity GI50, average value of all the cancer cell lines
# Renal Cancer cell lines = experiment: NCI panel, average of cell lines; settings: Homo sapiens, read-out: cytotoxicity GI50, average value of all the cancer cell lines
# [2] = tested on: Non-Small Cell Lung Cancer cell lines; experiment: NCI panel, average of cell lines; settings: Homo sapiens, read-out: cytotoxicity GI50, average value of all the cancer cell lines
# [3] = tested on: Prostate Cancer cell lines; experiment: NCI panel, average of cell lines; settings: Homo sapiens, read-out: cytotoxicity GI50, average value of all the cancer cell lines
# [4] = tested on: Ovarian Cancer cell lines; experiment: NCI panel, average of cell lines; settings: Homo sapiens, read-out: cytotoxicity GI50, average value of all the cancer cell lines
# Breast Cancer cell lines = experiment: NCI panel, average of cell lines; settings: Homo sapiens, read-out: cytotoxicity GI50, average value of all the cancer cell lines
# Colon Cancer cell lines = experiment: NCI panel, average of cell lines; settings: Homo sapiens, read-out: cytotoxicity GI50, average value of all the cancer cell lines
# Leukemia cell lines = experiment: NCI panel, average of cell lines; settings: Homo sapiens, read-out: cytotoxicity GI50, average value of all the cancer cell lines
# Melanoma cell lines = experiment: NCI panel, average of cell lines; settings: Homo sapiens, read-out: cytotoxicity GI50, average value of all the cancer cell lines
# K-562 cells = experiment: Cell cycle distribution by flow cytometry; assay type: cell-based, human; settings: K-562, 72 hrs
# Procedure: Samples of 1×10^6 Hep G2 cells were plated on a 6 cm tissue culture dish, and the cells were allowed to recover 24 hrs before any treatment. Thereafter, DMSO or a test compound (1 μM, 10 μM or 50 μM) was added to the cells for 1 hr in complete medium at 37° C., washed twice with PBS, and incubated in fresh media for the incubation time. Cell were harvested with trypsin and washed twice with PBS. Samples were fixed in 70% ethanol and stored at 4° C. for at least 24 hrs and then washed once with McIlvaine's buffer (0.2M Na2HPO4, 0.1M citric acid, pH=7.5) and once again with PBS. Samples were stained with PI (propidium iodide) staining solution (PBS containing 100 μg/ml, RNase A and 10 μg/ml PI [Sigma]), processed on a Coulter Elite flow cytometry, and the data analyzed with the Mutiplus AV program.
# topoisomerase I = molecular target: T1, topoisomerase I (Homo sapiens, UniProt P11387); experiment: Topoisomerase I assay, cleavage of supercoiled pGEM9zf(−) DNA, gel electrophoresis; assay type: biochemical; settings: for topo I inhibitor, overall conclusion: from FIGS. 1 and 2
# T1 sequence (P11387 1-765): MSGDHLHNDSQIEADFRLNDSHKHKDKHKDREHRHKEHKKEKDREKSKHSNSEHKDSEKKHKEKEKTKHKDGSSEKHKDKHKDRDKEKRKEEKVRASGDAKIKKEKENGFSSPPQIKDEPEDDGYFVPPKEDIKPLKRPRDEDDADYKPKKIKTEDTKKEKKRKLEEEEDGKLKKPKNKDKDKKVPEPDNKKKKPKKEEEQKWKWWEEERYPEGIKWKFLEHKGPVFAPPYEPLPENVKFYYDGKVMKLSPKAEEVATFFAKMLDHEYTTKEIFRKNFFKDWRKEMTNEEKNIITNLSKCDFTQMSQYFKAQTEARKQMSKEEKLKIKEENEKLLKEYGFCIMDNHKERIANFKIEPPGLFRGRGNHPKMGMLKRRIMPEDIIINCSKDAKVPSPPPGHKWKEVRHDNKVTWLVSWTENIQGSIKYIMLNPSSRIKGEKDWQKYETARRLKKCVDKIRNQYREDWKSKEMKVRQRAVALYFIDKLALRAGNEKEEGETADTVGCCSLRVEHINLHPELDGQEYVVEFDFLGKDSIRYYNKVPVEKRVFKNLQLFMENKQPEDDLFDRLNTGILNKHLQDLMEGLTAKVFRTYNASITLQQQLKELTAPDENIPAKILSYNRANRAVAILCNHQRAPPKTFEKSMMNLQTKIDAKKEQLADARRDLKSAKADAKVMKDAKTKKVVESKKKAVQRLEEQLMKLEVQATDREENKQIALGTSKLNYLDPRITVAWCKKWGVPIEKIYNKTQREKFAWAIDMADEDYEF
# [5] = tested on: Hela: human cervix epitheloid carcinoma; experiment: In vitro anticancer assay (cytotoxicity), solid tumor cells
# [6] = tested on: KB: human oral epidermoid carcinoma; experiment: as above
# Hep2,2,15 = settings: Hep2,2,15, Table 1; cited from earlier work
# [7] = tested on: KB: human oral epidermoid carcinoma
# [8] = tested on: DLD (DLD-1): human colon adenocarcinoma
# [9] = tested on: Hela: human cervix epitheloid carcinoma
# [10] = tested on: NCI (NCI-H661): human lung large cell carcinoma; experiment: In vitro anticancer assay (cytotoxicity), solid tumor cells
structure (smiles),measurement,setting,value
"CCCCC#C/C=C\C#Cc1ccccc1C#N [Compound 3, 2-(3(Z)-Decen-1,5-diynyl)benzonitrile]",IC50,KB cell,< 0.01 µM
"Cc1ccc(C#CC=CC#Cc2ccccc2C#N)cc1 [Compound 28, 2-(6-(4-tolyl)-3-hexen-1,5-diynyl)benzonitrile]",Growth percentage,CNS cancer cell SF-268,105%
same,Growth percentage,[1],96%
same,Growth percentage,Breast cancer cell MCF-7,80%
"N#Cc1ccccc1C#CC=CC#Cc1ccccc1N [Compound 32, 2-[6-(o-anilinyl)-3-hexen-1,5-diynyl]benzonitrile]",GI50,CNS Cancer cell lines,9.44 µM
same,GI50,Renal Cancer cell lines,0.66 µM
same,Growth percentage,CNS cancer cell SF-268,27* %
same,GI50,[2],1.7 µM
same,GI50,[3],3.13 µM
same,GI50,[4],1.55 µM
same,GI50,Breast Cancer cell lines,2 µM
same,GI50,Colon Cancer cell lines,0.47 µM
same,GI50,Leukemia cell lines,0.43 µM
same,Growth percentage,[1],8* %
same,GI50,Melanoma cell lines,0.77 µM
same,accumulation of G2/M stage cells,K-562 cells,an accumulation of G2/M stage cells
same,Growth percentage,Breast cancer cell MCF-7,36%
"CCCCCCC#C/C=C\C#Cc1ccc(-c2ccc(C#C/C=C\C#CCCCCCC)cc2)cc1 [Compound 12, 4,4′-Bis-(3-(Z)-Dodecen-1,5-diynyl)biphenyl]","topo I inhibitor, overall conclusion",topoisomerase I,not topo I inhibitors
"CC[C@@]1(O)C(=O)OCc2c1cc1n(c2=O)Cc2cc3ccccc3nc2-1 [camptothecin, reference compound]",inhibition of topo I,topoisomerase I,less topo I inhibitory activity; also recorded: observable inhibition of topo I
"N#Cc1ccccc1C#CC=CC#Cc1ccc(N)cc1 [Compound 33, 2-[6-(p-anilinyl)-3-hexen-1,5-diynyl]benzonitrile]",Growth percentage,CNS cancer cell SF-268,92%
same,Growth percentage,[1],94%
same,Growth percentage,Breast cancer cell MCF-7,100%
"CCCCCC#Cc1ccccc1C#Cc1ccccc1C#N [Compound 10, 2-(2-(2-Heptynylphenyl)ethynyl)benzonitrile]",IC50 Values of Cytotoxicities,[5],— (“—” means IC50 > 20 μg/ml)
same,IC50 Values of Cytotoxicities,[6],— (“—” means IC50 > 20 μg/ml)
"CCCCCC#C/C=C\C#Cc1ccccc1C#N [Compound 4, 2-(3(Z)-Undecen-1,5-diynyl)benzonitrile]",IC50,"Hep2,2,15",> 10 µM
same,IC50,KB cell,< 0.01 µM
CCCCC#C/C=C\C#Cc1ccc(Cl)cc1 [Compound 13],IC50 Values of Cytotoxicities,[7],— (key: “—” means IC50 > 20 μg/ml)
same,IC50 Values of Cytotoxicities,Hepa: human hepatoma,— (key: “—” means IC50 > 20 μg/ml)
"CCCCCCC#C/C=C\C#Cc1ccc(C(C)=O)cc1 [Compound 23, 4-(3-(Z)-Dodecen-1,5-diynyl)acetophenone]",IC50 Values of Cytotoxicities,[8],— (key: “—” means IC50 > 20 μg/ml)
same,"topo I inhibitor, overall conclusion",topoisomerase I,displayed topo I inhibitory activities
same,IC50 Values of Cytotoxicities,Hepa: human hepatoma,— (key: “—” means IC50 > 20 μg/ml)
same,IC50 Values of Cytotoxicities,[9],— (key: “—” means IC50 > 20 μg/ml)
"N#Cc1ccccc1C#CC=CC#Cc1cccs1 [Compound 29, 2-(6-(2-thienyl)-3-hexen-1,5-diynyl)benzonitrile]",Growth percentage,CNS cancer cell SF-268,96%
same,Growth percentage,[1],34%
same,Growth percentage,Breast cancer cell MCF-7,49%
"N#Cc1ccccc1C#Cc1ccccc1C#CCOC1CCCCO1 (stereo not drawn) [Compound 7, 2-(2-(3-Tetrahydro-pyranyl-5-oxy-1-propynylphenyl)ethynyl)benzonitrile]",IC50 Values of Cytotoxicities,[10],— (“—” means IC50 > 20 μg/ml)
same,inhibition of topo I,topoisomerase I; 0.87 μM compound,untwisting DNA was revealed
same,inhibition of topo I,topoisomerase I; 8.7 μM compound,no Topo I inhibition; also recorded: untwisting DNA was revealed
same,inhibition of topo I,topoisomerase I; 87 μM compound,no Topo I inhibition; also recorded: untwisting DNA was revealed
FC(F)(F)c1ccc(C#Cc2ccccc2C#Cc2ccc(C(F)(F)F)cc2)cc1 [Compound 42],Growth percentage,CNS cancer cell SF-268,55%
same,Growth percentage,[1],78%
same,Growth percentage,Breast cancer cell MCF-7,37%
